The values below come from PMC3201759 (Journal of proteome research, 2011).

Read-outs that look alike come from different tables or passages of the source.

In the test the target is T1, mouse Oat1 (mOat1; Oat1/Slc22a6) (Mus musculus, UniProt Q8VC69).
T1 sequence (Q8VC69 1-545): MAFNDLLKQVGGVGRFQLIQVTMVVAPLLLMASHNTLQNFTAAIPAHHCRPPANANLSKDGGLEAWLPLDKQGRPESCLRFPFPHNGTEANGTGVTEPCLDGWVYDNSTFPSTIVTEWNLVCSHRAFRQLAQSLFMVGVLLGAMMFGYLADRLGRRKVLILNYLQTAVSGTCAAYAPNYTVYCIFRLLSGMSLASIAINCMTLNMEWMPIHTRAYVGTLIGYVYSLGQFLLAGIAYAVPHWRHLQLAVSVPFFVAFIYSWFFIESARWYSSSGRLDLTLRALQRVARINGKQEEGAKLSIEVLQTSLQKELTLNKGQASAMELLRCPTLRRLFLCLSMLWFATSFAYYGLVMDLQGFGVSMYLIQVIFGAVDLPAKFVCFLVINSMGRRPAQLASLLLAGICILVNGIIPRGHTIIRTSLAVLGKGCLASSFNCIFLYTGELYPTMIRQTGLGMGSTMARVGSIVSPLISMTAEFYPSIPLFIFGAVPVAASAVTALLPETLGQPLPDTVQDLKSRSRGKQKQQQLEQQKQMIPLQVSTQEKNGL
As to the kind of experiment: inhibition of 6-carboxyfluorescein uptake, Xenopus oocytes. The class given is cell-based.

As usually defined, the IC50 is the concentration that inhibits the measured activity by half. Higher therefore signals lower potency. The compound `O=c1c2ncccc2[nH]c2c([N+](=O)[O-])c(O)c([N+](=O)[O-])c(O)c12` [CAS 5435-73-4] yielded an IC50 (30 μM 6-carboxyfluorescein tracer, 1 h incubation) of 22 µM.

`O=C(O)c1cc(O)c2cccc(O)c2n1` [xanthurenic acid]: the IC50 is 50 µM.

The compound `Nc1ccccc1C(=O)C[C@H](N)C(=O)O` [kynurenine] displayed an IC50 of 12 µM.
